The source of these data is US11028090B2 (Dong Wha Pharm. Co., Ltd., priority 2017, dated 2021).

In series [1] the test system is acute myelogenous leukemia cells (MV-4-11 cells). Description: Cytotoxicity to acute myelogenous leukemia cells (MV-4-11 cells), CCK-8.
Procedure: The following experiment was performed to evaluate the cytotoxicity of [1,2,4]triazolo[4,3-a]quinoxaline derivative according to the present invention to acute myelogenous leukemia cells (MV-4-11 cells).
Acute myelogenous leukemia cells (MV-4-11 cells) were distributed in a 96 well plate at the density of 5×10^3 cells/well. The plated cells were treated with the compounds of the present invention dissolved in DMSO at the different concentrations ranging from 0.01 μM to 10 μM. 72 hours later, the activities of the compounds were determined using CCK-8 reagent.
Series [2] addresses BRD4 (BD1+BD2) bromodomain (Homo sapiens (Human), UniProt O60885). Description: BRD4 binding inhibition (AlphaScreen, GST-BRD4 vs tetraacetylated histone H4 peptide). The method in brief:
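GST-BRD4 (BD1+BD2) and biotinylated tetraacetyl-histone H4 peptide, each at 100 nM in HEPES pH 7.4 buffer with BSA and DTT, were combined with compound. Glutathione acceptor and streptavidin donor beads were added, then incubated 30 min at room temperature in the dark. Read-out was AlphaScreen signal.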
For orientation: In Alpha technology, singlet oxygen from a donor bead excites a nearby acceptor bead.

[3] abbreviates: Homo sapiens, MV4-11, 72 h, read-out: IC50, cytotoxicity against acute myelogenous leukemia cells.
[4] abbreviates: Homo sapiens, MV4-11, 72 h, read-out: MV-4-11 Cytotoxicity IC50.
[5] abbreviates: GST-BRD4 (BD1+BD2) / biotinylated acetyl-histone H4 (Lys5,8,12,16) peptide, read-out: IC50, BRD4 binding inhibition.
The mark [6] stands for this setting: GST-BRD4 (BD1+BD2) vs biotinylated acetyl-histone H4 peptide, AlphaScreen, read-out: BRD4 IC50.

Read-outs that look alike come from different tables or passages of the source.

The IC50 is the concentration that gives 50% inhibition. On to `Cc1nnc2c(NCCCCNC(=O)OC(C)C)nc3cc(-n4ccnc4)ccc3n12` [Example 494, [4-(7-imidazole-1-yl-1-methyl-[1,2,4]triazolo[4,3-a]quinoxaline-4-ylamino)-butyl]-carbamic acid isopropylester], for which the IC50 is at most 200 nM in series [1] (setting [3]), 110 nM in series [1] (setting [4]), at most 50 nM in series [2] (setting [5]) and 14 nM in series [2] (setting [6]).
Turning to `Cc1noc(C)c1-c1ccc2c(c1)nc(NCCCCN)c1nnc(C)n12` [Example 584, N^1-[7-(3,5-dimethyl-isoxazol-4-yl)-1-methyl-[1,2,4]triazolo[4,3-a]quinoxaline-4-yl]-butane-1,4-diamine ditrifluoroacetic acid], the 50% inhibitory concentration (IC50) in series [1] (setting [3]) is at most 200 nM; in series [1] (setting [4]), 130 nM.
For `Cc1nnc2c(NCCCCNC(=O)CC(C)C)nc3cc(OC(=O)N4CCOCC4)ccc3n12` [Example 351], in series [1] (setting [4]), the IC50 turned out to be 290 nM.
Same read-out and setting: as for `Cc1nnc2c(NCCCCNC(=O)OC(C)(C)C)nc3cc(N4CCc5sccc5C4)ccc3n12` [Example 526, {4-[7-(6,7-dihydro-4H-thiano[3,2-c]pyridine-5-yl)-1-methyl-[1,2,4]triazolo[4,3-a]quinoxaline-4-ylamino]-butyl}-carbamic acid-tert-butylester], the figure is 802 nM; as for `CNc1ccc2c(c1)nc(NCCCCNC(=O)CC(C)C)c1nnc(C)n12` [Example 252, 3-methyl-N-[4-(1-methyl-7-methylamino-[1,2,4]triazolo[4,3-a]quinoxaline-4-ylamino)-butyl]-butyramide], 254 nM.
With `COc1cc2nc(NCCCCNC(=O)CC(C)C)c3nnc(C)n3c2cc1N(S(C)(=O)=O)S(C)(=O)=O` [Example 566, N-[4-(8-dimethanesulfonyl-amino-7-methoxy-1-methyl-[1,2,4]triazolo[4,3-a]quinoxaline-4-ylamino)-butyl]-3-methyl-butyramide], the concentration for half-maximal inhibition (IC50) in series [1] (read-out: MV-4-11 Cytotoxicity IC50, MV-4-11 cells, 72 hours, CCK-8) came out at 550 nM.
With `Cc1nnc2c(NCCCCNC(=O)CC(C)C)nc3cc(NC(=O)NC(C)C)ccc3n12` [Example 255, N-{4-[7-(3-isopropyl-ureido)-1-methyl-[1,2,4]triazolo[4,3-a]quinoxaline-4-ylamino]-butyl}-3-methyl-butyramide], the half-maximal inhibitory concentration (IC50) in series [1] (setting [3]) was at most 200 nM; in series [1] (setting [4]) it was 93 nM.
As to `CSc1ccc2c(c1)nc(NCCCCNC(=O)CC(C)C)c1nnc(C)n12` [Example 356, 3-methyl-N-[4-(1-methyl-7-methylsulfanyl-[1,2,4]triazolo[4,3-a]quinoxaline-4-ylamino)-butyl]-butyramide], the IC50 in series [1] (setting [3]) is at most 200 nM; in series [1] (setting [4]) it was 143 nM.
For the compound `Cc1nnc2c(NCCCCNC(=O)CC(C)C)nc3cc(NS(=O)(=O)C(C)C)ccc3n12` [Example 259, 3-methyl-N-{4-[1-methyl-7-(propane-2-sulfonylamino)-[1,2,4]triazolo[4,3-a]quinoxaline-4-ylamino]-butyl}-butyramide], the half-maximal inhibitory concentration (IC50) in series [1] (setting [4]) was found to be 339 nM.
On the same count and under the same terms, as for `Cc1nnc2c(NCCCCNC(=O)OC(C)C)nc3cc(OC(C)C)ccc3n12` [Example 452, [4-(7-isopropoxy-1-methyl-[1,2,4]triazolo[4,3-a]quinoxaline-4-ylamino)-butyl]-carbamic acid isopropylester], the figure is 320 nM.
In the case of `Cc1nnc2c(NCCCCNC(=O)CC(C)C)nc3cc(NC(=S)NC(C)C)ccc3n12` [Example 256, N-{4-[7-(3-isopropyl-thioureido)-1-methyl-[1,2,4]triazolo[4,3-a]quinoxaline-4-ylamino]-butyl}-3-methyl-butyramide], the IC50 is at most 200 nM in series [1] (setting [3]) and 84 nM in series [1] (setting [4]).
In the same order, the values of `COc1cc2nc(NCCCCNC(=O)CC(C)C)c3nnc(C)n3c2cc1NC(=O)NC(C)C` [Example 561, N-{4-[8-(3-isopropyl-ureido)-7-methoxy-1-methyl-[1,2,4]triazolo[4,3-a]quinoxaline-4-ylamino]-butyl}-3-methyl-butyramide] are at most 200 nM and 60 nM.
Turning to `COc1ccc2c(c1)nc(NCCCCNC(=O)C1CC1)c1nnc(C)n12` [Example 282, cyclopropane; carboxylic acid-[4-(7-methoxy-1-methyl-[1,2,4]triazolo[4,3-a]quinoxaline-4-ylamino)-butyl]-amide], the IC50 in series [1] (setting [4]) was determined as 534 nM.
In the case of `COc1cc2c(cc1OCCN1CCOCC1)nc(NCCCCNC(=O)CC(C)C)c1nnc(C)n12` [Example 577, N-{4-[8-methoxy-1-methyl-7-(2-morpholine-4-yl-ethoxy)-[1,2,4]triazolo[4,3-a]quinoxaline-4-ylamino]-butyl}-3-methyl butyramide], the half-maximal inhibitory concentration (IC50) is at most 200 nM in series [1] (setting [3]) and 87 nM in series [1] (setting [4]).
Consider `Cc1nnc2c(NCCCCNC(=O)C(C)(C)C)nc3ccc(OC(F)(F)F)cc3n12` [Example 265, 2,2-dimethyl-N-[4-(1-methyl-8-trifluoromethoxy-[1,2,4]triazolo[4,3-a]quinoxaline-4-ylamino)-butyl]-propionamide], for which, in series [1] (setting [4]), the 50% inhibitory concentration (IC50) worked out at 680 nM.
Turning to `Cc1nnc2c(NCCCCNC(=O)C(C)(C)C)nc3cc(OC(F)(F)F)ccc3n12` [Example 271, 2,2-dimethyl-N-[4-(1-methyl-7-trifluoromethoxy-[1,2,4]triazolo[4,3-a]quinoxaline-4-ylamino)-butyl]-propionamide], in series [1] (setting [4]), the IC50 was found to be 880 nM.
The same measure, in the same setting: the same measure for `COCCOc1cc2c(cc1OC)nc(NCCCCN)c1nnc(C)n12` [Example 484, N^1-[7-methoxy-8-(2-methoxy-ethoxy)-1-methyl-[1,2,4]triazolo[4,3-a]quinoxaline-4-yl]-butane-1,4-diamine ditrifluoroacetic acid]: 460 nM.
As to `Cc1nnc2c(NCCCCNC(=O)[C@@H](NC(=O)CC(C)C)C(C)C)nc3cc(N4C[C@@H](C)O[C@@H](C)C4)ccc3n12` [Example 518, (S)-N-{4-[7-(2,6-dimethyl-morpholine-4-yl)-1-methyl-[1,2,4]triazolo[4,3-a]quinoxaline-4-ylamino]-butyl}-3-methyl-2-(3-methyl-butyrylamino)-butyramide], the IC50 in series [1] (setting [4]) was 480 nM.
`COCCOc1cc2c(cc1OC)nc(NCCCCNC(=O)OC(C)(C)C)c1nnc(C)n12` [Example 483, {4-[7-methoxy-8-(2-methoxy-ethoxy)-1-methyl-[1,2,4]triazolo[4,3-a]quinoxaline-4-ylamino]-butyl}-carbamic acid-tert-butylester]: the IC50 in series [1] (setting [4]) amounted to 460 nM.
On to `Cc1nnc2c(NCCCCOC(=O)C(C)(C)C)nc3ccccc3n12` [Example 631, 2,2-dimethyl-propionic acid-4-(1-methyl-[1,2,4]triazolo[4,3-a]quinoxaline-4-ylamino)-butylester], for which the IC50 was at most 50 nM in series [2] (setting [5]) and 47 nM in series [2] (setting [6]).
On the same counts, the results for `COc1c(C)ccc2c1nc(NCCCCNC(=O)OC(C)(C)C)c1nnc(C)n12` [Example 130, {4-[6-methoxy-1,7-dimethyl-[1,2,4]triazolo[4,3-a]quinoxaline-4-ylamino]-butyl}-carbamic acid-tert-butylester] are at most 50 nM and 36 nM.
In the same order, the values of `Cc1noc(C)c1-c1ccc2c(c1)nc(NCCCCNC(=O)OC(C)(C)C)c1nnc(C)n12` [Example 583, {4-[7-(3,5-dimethyl-isoxazol-4-yl)-1-methyl-[1,2,4]triazolo[4,3-a]quinoxaline-4-ylamino]-butyl}-carbamic acid-tert-butylester] are at most 10 nM and 5 nM.
Regarding `COCCOc1cc2c(cc1OC)nc(NCCCCNC(=O)CC(C)C)c1nnc(C)n12` [Example 485, N-{4-[7-methoxy-8-(2-methoxy-ethoxy)-1-methyl-[1,2,4]triazolo[4,3-a]quinoxaline-4-ylamino]-butyl}-3-methyl-butyramide], the IC50 in series [2] (setting [6]) stood at 59 nM.
For the compound `COc1cc2nc(NCCCCNC(=O)OC(C)(C)C)c3nnc(C)n3c2cc1F` [Example 572, [4-(8-fluoro-7-methoxy 1-methyl-[1,2,4]triazolo[4,3-a]quinoxaline-4-ylamino)-butyl]-carbamic acid-tert-butylester], the IC50 in series [1] (setting [4]) stood at 238 nM.
On to `Cc1noc(C)c1-c1ccc2c(c1)nc(NCCCCNC(=O)[C@@H](O)C(C)C)c1nnc(C)n12` [Example 587, N-{4-[7-(3,5-dimethyl-isoxazol-4-yl)-1-methyl-[1,2,4]triazolo[4,3-a]quinoxaline-4-ylamino]-butyl}-2-(S)-hydroxy-3-methyl-butyramide], for which the half-maximal inhibitory concentration (IC50) in series [2] (setting [5]) is at most 10 nM; in series [2] (setting [6]), 7 nM.
In the same order, the values of `Cc1nnc2c(NCCCCNC(=O)c3ccc(Cl)cc3)nc3ccccc3n12` [Example 14, 4-chloro-N-[4-(1-methyl-[1,2,4]triazolo[4,3-a]quinoxaline-4-ylamino)-butyl]-benzamide] are at most 50 nM and 41 nM.
In the case of `COc1cc2nc(NCCCCNC(=O)Nc3ccccc3)c3nnc(C)n3c2cc1OC` [Example 94], the IC50 in series [2] (setting [6]) amounted to 57 nM.
With `Cc1nnc2c(NCCCCNC(=O)c3cccc(Cl)c3)nc3ccccc3n12` [Example 15, 3-chloro-N-[4-(1-methyl-[1,2,4]triazolo[4,3-a]quinoxaline-4-ylamino)-butyl]-benzamide], the IC50 is at most 50 nM in series [2] (setting [5]) and 27 nM in series [2] (setting [6]).
On to `Cc1nnc2c(NCCCCNC(=O)[C@@H](F)C(C)C)nc3cc(N4C[C@@H](C)O[C@@H](C)C4)ccc3n12` [Example 511, N-{4-[7-(2,6-dimethyl-morphonyl-4-yl)-1-methyl-[1,2,4]triazolo[4,3-a]quinoxaline-4-ylamino]-butyl}-2-(S)-fluoro-3-methyl-butyramide], for which the results for the IC50 in series [2] (setting [5]) and in series [2] (setting [6]) were at most 50 nM and 34 nM, respectively.
